In PubChem BioAssay (NCI) one finds TGI and GI50 data, which are given here for nine compounds.

Molecules are shown by their SMILES. Several values for one entry are separate records, joined by “and”; a condition that tells them apart may be missing. Identical values can stand only once.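 Cultured in 96-well plates, cells were exposed to test compound for 48 hours across five concentrations. GI50: concentration for 50% inhibition of growth. Definition used: TGI = concentration required for complete inhibition of growth.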 Where only a bound is given, the exact number is not on record here.

Test systems include HL-60(TB) leukemia; NCI-H522 lung; OVCAR-8 ovarian; MOLT-4 leukemia; OVCAR-3 ovarian; HCT-15 colon; SK-OV-3 ovarian; NCI-H23 lung; M14 melanoma; SNB-19 CNS; SF-539 CNS; SN12C renal.
Assay in all cases: NCI-60 cell line screen, 48 h

Consider `O=C(N/N=C/c1cc(Cl)cc(Cl)c1[O-])c1ccccc1O.O=C(N/N=C/c1cc(Cl)cc(Cl)c1[O-])c1ccccc1O.[Fe+2]`, for which the TGI in the assay on HL-60(TB) leukemia was 16.3 µM; in the assay with NCI-H522 lung, 23.8 µM; in the assay with OVCAR-8 ovarian it was 34.3 µM; in the assay with MOLT-4 leukemia, above 100 µM; in the assay on OVCAR-3 ovarian, 38.5 µM; with HCT-15 colon, 19.3 µM. In addition, the TGI in the assay with SK-OV-3 ovarian was 39.1 µM; in the assay with NCI-H23 lung, 31.6 µM; in the assay on M14 melanoma, 34.7 µM; in the assay with SNB-19 CNS it was 46.2 µM; in the assay on SF-539 CNS, 28 µM. The GI50 was 19.2 µM with MOLT-4 leukemia, 6 µM in the assay with NCI-H23 lung and 10.4 µM in the assay on SF-539 CNS.

For `CCN(CC)CCCNC(=O)c1ccccc1Nc1c(Cl)cccc1Cl`, the TGI in the assay on HL-60(TB) leukemia is 12.5 µM; in the assay on OVCAR-8 ovarian, 31.6 µM; in the assay on MOLT-4 leukemia, 27.9 µM; in the assay with SN12C renal, 27.2 µM; with HCT-15 colon, 25.2 µM; with SK-OV-3 ovarian it was 27.7 µM. Further, the TGI in the assay on NCI-H23 lung stood at 30.9 µM; in the assay with M14 melanoma, 7.86 µM; in the assay with SNB-19 CNS, 29.1 µM; in the assay on SF-539 CNS it was 23.7 µM.

Consider `O=C(N/N=C/c1cc(Cl)cc(Cl)c1[O-])c1ccccc1O.O=C(N/N=C/c1cc(Cl)cc(Cl)c1[O-])c1ccccc1O.[Cu+2]`, for which the TGI worked out at 0.512 µM with HL-60(TB) leukemia; 0.568 µM in the assay with NCI-H522 lung; 1.08 µM in the assay on OVCAR-8 ovarian; 2.12 µM in the assay with MOLT-4 leukemia; 0.778 µM in the assay on OVCAR-3 ovarian; 1.61 µM in the assay on HCT-15 colon. Further, the TGI in the assay on SK-OV-3 ovarian came out at 1.38 µM; in the assay on NCI-H23 lung it was 1.66 µM; in the assay on M14 melanoma, 0.964 µM; in the assay on SNB-19 CNS it was 2.05 µM; with SF-539 CNS, 1.02 µM. The GI50 in the assay on MOLT-4 leukemia was 0.285 µM; in the assay with NCI-H23 lung, 0.436 µM; in the assay on SF-539 CNS, 0.306 µM.

On to `CC(=O)C(C(=O)C(=O)Nc1cc(Cl)c(Cl)cc1Cl)c1csc(N)n1` (stereo unspecified), for which the TGI in the assay with HL-60(TB) leukemia, with NCI-H522 lung, in the assay with OVCAR-8 ovarian, with MOLT-4 leukemia, with SN12C renal and in the assay on HCT-15 colon was above 100 µM each time. Besides, the TGI in the assay with SK-OV-3 ovarian, in the assay with NCI-H23 lung, in the assay on M14 melanoma, in the assay on SNB-19 CNS and in the assay with SF-539 CNS was above 100 µM throughout.

In the case of `Cn1cc(-c2csc(-c3cn(CCCN4CCCCC4)c4ccc(Br)cc34)n2)c2cccnc21`, the GI50 with OVCAR-3 ovarian is 1.8 µM; in the assay on SN12C renal, 1.74 µM; with SK-OV-3 ovarian it was 1.92 µM; in the assay with NCI-H23 lung it was 1.79 µM; with SNB-19 CNS, 1.83 µM; in the assay on SF-539 CNS, 1.75 µM. Besides, the TGI with OVCAR-3 ovarian came out at 3.38 µM; in the assay with SN12C renal, 3.31 µM; in the assay with SK-OV-3 ovarian, 3.9 µM; in the assay with NCI-H23 lung, 3.51 µM; in the assay on SNB-19 CNS, 3.31 µM; in the assay on SF-539 CNS, 3.2 µM.

Regarding `CC(=O)OC1(C)CC(C)C(=O)C(C(O)CC2CC(=O)NC(=O)C2)C1` (stereo unspecified), the TGI was 0.146 µM in the assay with NCI-H522 lung; 0.965 µM and 0.406 µM in the assay on OVCAR-8 ovarian; 0.316 µM with MOLT-4 leukemia; 1.62 µM with OVCAR-3 ovarian; 0.176 µM in the assay with HCT-15 colon; 1.44 µM in the assay with SK-OV-3 ovarian. For the same compound, the TGI in the assay with M14 melanoma is 0.172 µM and 0.0421 µM; with SNB-19 CNS, 0.598 µM.

Regarding `O=[N+]([O-])c1cc(C(F)(F)F)cc2c1SC1=Nc3ccccc3CN12`, the TGI in the assay on HL-60(TB) leukemia, in the assay on NCI-H522 lung, with OVCAR-8 ovarian, with MOLT-4 leukemia, in the assay on OVCAR-3 ovarian and in the assay on SN12C renal was above 100 µM in each case. In addition, the TGI in the assay with HCT-15 colon, in the assay on SK-OV-3 ovarian, in the assay on NCI-H23 lung, in the assay on SNB-19 CNS and in the assay on SF-539 CNS was above 100 µM throughout.

As for `CCCCCC1CC(C(C)=O)CN1c1ccc(F)cc1` (stereo unspecified), the TGI with HL-60(TB) leukemia was above 10 µM; in the assay on NCI-H522 lung it was 56.5 µM; with OVCAR-8 ovarian, above 100 µM; with OVCAR-3 ovarian it was 90.1 µM; in the assay with SN12C renal, above 100 µM; in the assay on HCT-15 colon, above 100 µM. Besides, the TGI in the assay on NCI-H23 lung is 63.8 µM; with M14 melanoma, above 100 µM; in the assay on SNB-19 CNS, above 10 µM; with SF-539 CNS, above 100 µM.

For the compound `CCn1c(=O)c2c3ccc(O)cc3[nH]c2c2ccc(O)cc21`, the TGI in the assay with NCI-H522 lung, in the assay on OVCAR-8 ovarian, with MOLT-4 leukemia, in the assay with OVCAR-3 ovarian, in the assay with SN12C renal and in the assay on HCT-15 colon was above 100 µM in each case. Also, the TGI in the assay with SK-OV-3 ovarian, with NCI-H23 lung, in the assay on M14 melanoma, in the assay with SNB-19 CNS and with SF-539 CNS was above 100 µM in each case.
